Patent US20110172296A1, “MODULATION OF TRANSFORMING GROWTH FACTOR-BETA 1 EXPRESSION” (priority 2010, published 2011)
Where “and” joins values, the source holds several entries; their conditions need not be identical. Identical values can stand only once. In the oligonucleotide strings, read from the 5' end, every base follows the letter of its sugar. An asterisk marks phosphorothioate; unmarked linkages are phosphodiester. Other units and linkages are bracketed, terminal groups are in braces. A string of capitals states the bases alone. e = 2'-O-(2-methoxyethyl) (MOE); [5mC] = 5-methylcytosine; d = 2'-deoxy (DNA)

Test system: human TGF-beta1 mRNA
Test: Antisense inhibition of human TGF-beta1 mRNA in HuVEC cells, single 10 nM dose, Lipofectamine 2000 (Example 2)
Format: cell-based
Conditions: for % inhibition: 10 nM oligonucleotide, HuVEC, relative to untreated control cells; for inhibition of a TGF-beta1 mRNA: threshold lists of Oligo IDs, 10 nM
Description: Antisense oligonucleotides targeted to a TGF-beta1 nucleic acid were tested for their effects on TGF-beta1 mRNA in vitro. Cultured HuVEC cells at a density of 5,000 cells per well were transfected using Lipofectamine™ 2000 reagent with 10 nM antisense oligonucleotide for 4 hours. After a recovery period of approximately 24 hours, RNA was isolated from the cells and TGF-beta1 mRNA levels were measured by quantitative real-time PCR. TGF-beta1 mRNA levels were adjusted according to total RNA content, as measured by RIBOGREEN®. Results are presented as percent inhibition of TGF-beta1, relative to untreated control cells.
The chimeric antisense oligonucleotides in Tables 1 and 2 were designed as 2-13-5 MOE gapmers. Antisense molecules with this motif targeting TGF-beta1 are unique, and represent a novel chemical structure for an ASO directed against this target. The gapmers are 20 nucleotides in length, wherein the central gap segments are comprised of thirteen 2′-deoxynucleotides and are flanked on the 5′ side by wings comprising two nucleotides each and on the 3′ side by wings comprising five nucleotides each. Each nucleotide in the 5′ wing segment and each nucleotide in the 3′ wing segment has a 2′-MOE modification. The internucleoside linkages throughout each gapmer are phosphorothioate (P═S) linkages. All cytosine residues throughout each gapmer are 5-methylcytosines. “Target start site” indicates the 5′-most nucleotide to which the gapmer is targeted. “Target stop site” indicates the 3′-most nucleotide to which the gapmer is targeted. Each gapmer listed in Table 1 is targeted to SEQ ID NO: 1 (GENBANK Accession No. NM_000660.3). Each gapmer listed in Table 2 is targeted to SEQ ID NO: 2 (GENBANK Accession No. NT 011109.15 truncated from 14103000 to […]).

[1] = gapmers targeted to SEQ ID NO: 2
[2] = gapmers targeted to SEQ ID NO: 1

Substance	% inhibition [1] [%]	% inhibition [2] [%]	inhibition of a TGF-beta1 mRNA
414078 (antisense eT*eG*dG*dG*d[5mC]*dA*dA*dT*dT*dA*dT*dT*dG*dA*dA*eT*eA*eA*eA*eA) [compound 414078]	18		
413968 (antisense eG*eA*dG*dA*dT*dG*dG*d[5mC]*d[5mC]*d[5mC]*dA*dG*dG*dG*d[5mC]*eG*e[5mC]*eG*eA*eA) [compound 413968]		55	
413987 (antisense eA*eG*dG*dT*d[5mC]*d[5mC]*d[5mC]*d[5mC]*dG*d[5mC]*dG*d[5mC]*d[5mC]*dT*d[5mC]*e[5mC]*eG*eG*e[5mC]*eT) [compound 413987]		71	60% and 65% and 70%
414054 (antisense eT*eG*dA*dA*dG*dT*dT*d[5mC]*dA*dT*dT*d[5mC]*dT*dG*dG*eG*eT*eA*eG*eG) [compound 414054]	51		
414122 (antisense eT*e[5mC]*dA*d[5mC]*dT*dA*dA*d[5mC]*dA*d[5mC]*dA*dG*dA*dT*dT*eA*eA*eG*e[5mC]*eA) [compound 414122]	34		
414083 (antisense eA*eA*d[5mC]*d[5mC]*dT*dG*dG*dA*dG*d[5mC]*dA*d[5mC]*d[5mC]*dT*dG*eG*eT*e[5mC]*eA*eG) [compound 414083]	42		
413995 (antisense e[5mC]*e[5mC]*d[5mC]*dG*dA*dG*dG*dG*d[5mC]*dT*dG*dG*dT*d[5mC]*d[5mC]*eG*eG*eA*eA*eT) [compound 413995]		72	60% and 65% and 70%
414104 (antisense eA*eG*dG*dA*dT*dT*d[5mC]*dA*dA*dG*dT*dA*dA*dG*dG*eT*e[5mC]*eT*eA*e[5mC]) [compound 414104]	61		60%
414025 (antisense eA*eG*dG*d[5mC]*dT*d[5mC]*dG*dG*dG*d[5mC]*dT*d[5mC]*d[5mC]*dG*dG*eT*eT*e[5mC]*eT*eG) [compound 414025]		79	60% and 65% and 70% and 75%
414057 (antisense eT*eA*d[5mC]*dA*d[5mC]*dT*dG*dG*dT*d[5mC]*dA*d[5mC]*dT*d[5mC]*dA*eA*eT*e[5mC]*eA*eT) [compound 414057]	58		
413993 (antisense eT*e[5mC]*d[5mC]*d[5mC]*d[5mC]*dG*dG*d[5mC]*dG*dG*d[5mC]*dA*dA*dA*dG*eG*eG*eA*eG*eG) [compound 413993]		52	
414021 (antisense eT*eG*dT*dA*d[5mC]*dA*dG*dG*dG*d[5mC]*dG*dA*dG*d[5mC]*dA*e[5mC]*eG*eG*e[5mC]*e[5mC]) [compound 414021]	74		60% and 65% and 70%
414001 (antisense e[5mC]*eA*dG*dG*dT*d[5mC]*dG*dG*dA*dG*dA*dG*dA*dG*dA*eT*e[5mC]*e[5mC]*eG*eT) [compound 414001]		78	60% and 65% and 70% and 75%
413992 (antisense e[5mC]*e[5mC]*d[5mC]*dG*dG*d[5mC]*dG*dG*d[5mC]*dA*dA*dA*dG*dG*dG*eA*eG*eG*e[5mC]*eG) [compound 413992]		60	60%
414048 (antisense eG*eG*dT*dT*dT*d[5mC]*d[5mC]*d[5mC]*d[5mC]*dA*dG*d[5mC]*d[5mC]*dA*d[5mC]*e[5mC]*e[5mC]*eT*eG*eA) [compound 414048]	61		60%
414051 (antisense eG*eT*d[5mC]*dA*dG*dT*dG*dT*dT*dA*dA*dA*dG*dG*dA*eA*e[5mC]*e[5mC]*eT*e[5mC]) [compound 414051]	36		
414107 (antisense eT*eT*d[5mC]*dA*dA*dA*dT*dG*dT*dA*dT*d[5mC]*dT*d[5mC]*dT*eA*eA*eT*eT*eA) [compound 414107]	7		

Substance	% inhibition [1] [%]	% inhibition [2] [%]	inhibition of a TGF-beta1 mRNA
414026 (antisense e[5mC]*e[5mC]*dT*d[5mC]*dA*dG*dG*d[5mC]*dT*d[5mC]*dG*dG*dG*d[5mC]*dT*e[5mC]*e[5mC]*eG*eG*eT) [compound 414026]		82	60% and 65% and 70% and 75% and 80%
413974 (antisense eG*eG*d[5mC]*dA*dA*d[5mC]*dG*dG*dA*dA*dA*dA*dG*dT*d[5mC]*eT*e[5mC]*eA*eA*eA) [compound 413974]		69	60% and 65%
414116 (antisense e[5mC]*eT*dG*dG*dA*dT*dG*dA*dG*dA*dG*dT*dT*dT*dA*e[5mC]*eG*eG*eG*e[5mC]) [compound 414116]	83		60% and 65% and 70% and 75% and 80%
414075 (antisense eG*eA*dT*dT*dA*dG*d[5mC]*d[5mC]*dA*dA*dT*d[5mC]*dA*d[5mC]*dT*e[5mC]*eA*eG*eG*eT) [compound 414075]	75		60% and 65% and 70% and 75%
414050 (antisense eT*eT*d[5mC]*d[5mC]*d[5mC]*d[5mC]*dA*dA*dG*dG*d[5mC]*dT*d[5mC]*dT*dG*eA*eA*e[5mC]*e[5mC]*eA) [compound 414050]	82		60% and 65% and 70% and 75% and 80%
414020 (antisense eG*eG*dA*dG*dG*d[5mC]*d[5mC]*d[5mC]*d[5mC]*dG*d[5mC]*d[5mC]*d[5mC]*d[5mC]*dT*eG*e[5mC]*eA*eG*eG) [compound 414020]		0	
414014 (antisense eG*eA*dT*dG*dG*dG*d[5mC]*dG*d[5mC]*dG*dA*dT*d[5mC]*dT*dG*eG*eT*eA*e[5mC]*e[5mC]) [compound 414014]		89	60% and 65% and 70% and 75% and 80% and 85%
413989 (antisense eG*eG*d[5mC]*dA*dA*dA*dG*dG*dG*dA*dG*dG*d[5mC]*dG*dG*eT*e[5mC]*eT*eG*eG) [compound 413989]		41	
414010 (antisense e[5mC]*eG*dA*dT*d[5mC]*dT*dG*dG*dT*dA*d[5mC]*d[5mC]*dA*dG*dA*eA*eG*eG*eT*eG) [compound 414010]		88	60% and 65% and 70% and 75% and 80% and 85%
413978 (antisense e[5mC]*eT*d[5mC]*d[5mC]*d[5mC]*dA*dG*d[5mC]*dG*dG*d[5mC]*dA*dA*d[5mC]*dG*eG*eA*eA*eA*eA) [compound 413978]		67	60% and 65%
414019 (antisense eG*eG*dA*dA*dA*dT*dA*dA*d[5mC]*d[5mC]*dT*dA*dG*dA*dT*eG*eG*eG*e[5mC]*eG) [compound 414019]		78	60% and 65% and 70% and 75%
414042 (antisense e[5mC]*eG*d[5mC]*d[5mC]*d[5mC]*dA*dA*dT*dG*dA*d[5mC]*dA*d[5mC]*dA*dG*eA*eG*eA*eT*e[5mC]) [compound 414042]		68	60% and 65%
414047 (antisense e[5mC]*e[5mC]*dT*dG*d[5mC]*d[5mC]*d[5mC]*d[5mC]*dT*dT*dG*dG*dT*dG*dG*eA*eA*eG*e[5mC]*eG) [compound 414047]	41		
414074 (antisense eA*eA*dG*dT*dG*dA*d[5mC]*d[5mC]*d[5mC]*d[5mC]*dA*dG*dG*dA*d[5mC]*eA*eA*eA*e[5mC]*eA) [compound 414074]	24		
413991 (antisense e[5mC]*eG*dG*d[5mC]*dG*dG*d[5mC]*dA*dA*dA*dG*dG*dG*dA*dG*eG*e[5mC]*eG*eG*eT) [compound 413991]		69	60% and 65%
414106 (antisense eA*eT*dT*d[5mC]*d[5mC]*dT*dT*dG*dA*dT*dA*dT*d[5mC]*dT*dA*eG*eA*eG*eG*eA) [compound 414106]	74		60% and 65% and 70%
414041 (antisense eA*e[5mC]*dA*dG*dA*dG*dA*dT*d[5mC]*d[5mC]*dG*d[5mC]*dA*dG*dT*e[5mC]*e[5mC]*eT*e[5mC]*eT) [compound 414041]		74	60% and 65% and 70%
